# “Also recorded” adds a separate entry of the source. Structures can show the parent of a compound that is named as a salt.
# What was measured:
# [1] = system: RA synovial membrane cultures; assay: Spontaneous cytokine release from RA synovial membrane cultures (ELISA); type: cell-based, human
# Experimental: (§1) Macrophages or RA synovial membrane cell cultures were stimulated with 10 ng/ml chloroform-extracted LPS, 10 ng/ml Pam3, 10 ng/ml Flagellin, 10 ng/ml Malp-2, 20 μg/ml poly IC, 2 μM CpG (human/mouse) or 1 μg/ml R-848 in complete media for 6 h. Supernatants from RA cultures were harvested after 24 hours.
# (§2) Sandwich ELISAs were employed to measure TNF, (Pharmingen, UK). IP-10 (R&D, USA) and IL-1β (Bioscource. USA). Absorbance was read on a spectrophotometric ELISA plate reader (Labsystems Multiscan Biochromic) and analyzed using Ascent software V2.6 (Thermo Labsystems, Cambridge, United Kingdom). All results are expressed as the mean cytokine concentration±SD obtained from triplicate cultures per condition.
# (§3) RA synovial membrane cells were isolated from patients undergoing joint replacement surgery as previously described (Foxwell et al., Proc. Natl. Acad. Sci. USA 95, 8211-8215, 1998). All patients gave written informed consent and the study was approved by the local ethics committee. Immediately after isolation, cells were used for mRNA analysis, stained by FACS or cultured at 1×10^5 cells/well in 96-well tissue culture plates (Falcon, UK) in RPMI 1640 containing 10% (v/v) FBS and 100 U/ml penicillin/streptomycin. Primary human synovial fibroblasts were cultured as described previously (Butler et al. Eur. Cytokine Netw. 5:441-8, 1994). Peripheral blood monocytes were isolated and cultured as previously described (Foxwell et al. Proc. Natl. Acad. Sci. USA 95, 8211-8215, 1998). Macrophages were derived from monocytes after differentiation for 4 days with 100 ng/ml M-CSF (PeproTech, UK). The mouse macrophage cell line RAW 264.7 was maintained in Dulbecco's modified Eagle's medium supplemented with 10% fetal bovine serum.
# Rheumatoid arthritis synovial membrane cells were cultured for 24 hours in the presence of media alone or media containing 30 μg/ml mianserine hydrochloride. Supernatants were harvested and levels of cytokines (A) TNF (n=16) were measured by ELISA. […] A students paired t-test was used to analyse the data.
# [2] = system: CIA model of rheumatoid arthritis; assay: Murine CIA model of rheumatoid arthritis; type: in vivo, Male DBA mice
# Experimental: Male DBA mice (8-10 weeks of age) were immunized at the base of the tail intradermally with 200 μg type II collagen emulsified in CFA (Difco Laboratories, West Molesey, U.K.). The onset of arthritis was considered to be the day that erythema and/or swelling were first observed, and arthritic mice were given a daily clinical score per limb from 0 to 3, with 0=normal, 1=slight erythema and swelling, 2=pronounced edematous swelling and 3=joint deformity with ankylosis, resulting in a maximum score of 12 per animal. Mianserine treatment started on the day of onset and was administered daily for 7 days. Paw swelling was assessed by measuring hind paw thickness using calipers.
# The experiment was started at the onset of arthritis (day 1). Mice were given an interperitoneal injection of vehicle (PBS), 4 mg/kg or 10 mg/kg of mianserine hydrochloride once a day for 7 days. Mice were assessed for (FIG. 2A) clinical score and (FIG. 2B) paw swelling on a daily basis.
# [3] = system: TLR4 ligand LPS induced TNF; assay: LPS induced TNF production in primary human macrophages (ELISA); type: cell-based; settings: 30 μg/ml, 30 minutes preincubation, 10 ng/ml LPS for 6 hours; hydrochloride
# Experimental: as §1, with “hours. All reagents other than LPS were free from LPS contamination as assessed using the limulus amebocyte lysate (LAL) assay from Cambrex (USA).” for “hours.”
# as §2, §3
# Primary human macrophages, murine RAW 264.7 cells and synovial fibroblasts were incubated with 30 μg/ml mianserine hydrochloride for 30 minutes and then stimulated for 6 hours with TLR ligands (R-848, Pam3, LPS, flagellin, malp-2, poly IC or CpG).
# [4] = system: TLR ligands Pam3, flagellin, Malp-2 induced TNF; assay: Pam3, flagellin or Malp-2 induced TNF production in primary human macrophages (ELISA); type: cell-based; settings: 30 μg/ml, 30 minutes preincubation
# Experimental: as §1, with “hours. All reagents other than LPS were free from LPS contamination as assessed using the limulus amebocyte lysate (LAL) assay from Cambrex (USA).” for “hours.”
# as §2
# (§4) RA synovial membrane cells were isolated from patients undergoing joint replacement surgery as previously described (Foxwell et al., Proc. Natl. Acad. Sci. USA 95, 8211-8215, 1998). All patients gave written informed consent and the study was approved by the local ethics committee. Immediately after isolation, cells were used for mRNA analysis, stained by FACS or cultured at 1×10^5 cells/well in 96-well tissue culture plates (Falcon, UK) in RPMI 1640 containing 10% (v/v) FBS and 100 U/ml penicillin/streptomycin. […]
# [5] = system: TLR3 ligand poly IC induced IP-10; assay: Poly IC induced IP-10 production in human macrophages (ELISA); type: cell-based; settings: 30 μg/ml, 20 μg/ml poly IC for 6 hours; hydrochloride
# Experimental: as §1, with “hours. All reagents other than LPS were free from LPS contamination as assessed using the limulus amebocyte lysate (LAL) assay from Cambrex (USA).” for “hours.”
# as §2, §3
# Primary human macrophages were incubated with 5 μg/ml of GBR12909, 5 μg/ml of clotrimazole, 5 μg/ml of Propidium iodide (PI), 30 μg/ml mianserine hydrochloride and 30 μg/ml promazine hydrochloride for 30 minutes and then stimulated for 6 hours with the TLR4 ligand LPS (FIG. 7A), with R848 a TLR7/8 ligand (FIG. 7, Graph B), or with poly IC a TLR3 ligand (FIG. 7C). Supernatants were collected and measured for TNF or IP-10.
# [6] = system: TLR9 ligand CpG induced TNF; assay: CpG induced TNF production in murine RAW 264.7 macrophages (ELISA); type: cell-based; settings: 30 μg/ml, 30 minutes preincubation, CpG for 6 hours, RAW 264.7, n=2
# Experimental: as §1, with “hours. All reagents other than LPS were free from LPS contamination as assessed using the limulus amebocyte lysate (LAL) assay from Cambrex (USA).” for “hours.”
# as §2, §4
# [7] = system: TLR3 induced NF-κB activation; assay: NF-κB luciferase reporter assay in synovial fibroblasts stimulated with poly IC; type: cell-based, human; settings: 30 μg/ml, 30 minutes preincubation, 20 μg/ml Poly IC for 6 h, n=3
# Experimental: (§5) Synovial fibroblasts were cultured in a 96-well plate, infected with recombinant adenovirus containing a NF-κB Luciferase reporter gene at a MOI of 200:1. The cells were allowed to rest for 24 h prior to stimulation. Cells were preincubated with 30 μg/ml mianserine hydrochloride for 30 minutes, then stimulated with 10 ng/ml LPS or 20 μg/ml Poly IC for 6 h. The cells were then washed once in PBS and lysed with 100 μl of CAT lysis buffer (0.65% (v/v) of Nonidet P-40, 10 mM Tris-HCl pH 8, 0.1 mM EDTA pH 8, 150 mM NaCl). 50 μl of cell lysate were mixed with 120 μl luciferase assay buffer (25 mM Tris-phosphate pH 7.8, 8 mM MgCl2, 1 mM EDTA, 1% (v/v) Triton X-100, 1% (v/v) glycerol, 1 mM DTT, 0.5 mM ATP) in the well of a luminometer cuvette strip. Luciferase activity was measured with a Luminometer (Thermo Labsystems, U.K.) by adding […] of luciferin (Bright-Glo luciferase assay system; Promega, Madison, Wis.) per assay point.
# (§6) RA synovial membrane cells were isolated from patients undergoing joint replacement surgery as previously described (Foxwell et al., Proc. Natl. Acad. Sci. USA 95, 8211-8215, 1998). All patients gave written informed consent and the study was approved by the local ethics committee. […]
# [8] = system: LPS induced NF-κB activation (TLR4); assay: NF-κB luciferase reporter assay in synovial fibroblasts stimulated with LPS; type: cell-based, human; settings: 30 μg/ml, 30 minutes preincubation, 10 ng/ml LPS for 6 h, n=3
# Experimental: as §5, §6
# [9] = system: RA synovial membrane cultures; assay: Spontaneous cytokine release from RA synovial membrane cultures (ELISA); type: cell-based, human; settings: 24 hours
# [10] = system: TLR7/8 ligand R-848 induced TNF; assay: R-848 induced TNF production in primary human macrophages (ELISA)
# [11] = 4 mg/kg interperitoneal once a day for 7 days
# [12] = 10 mg/kg interperitoneal once a day for 7 days
compound,measurement,setting,value
CN1CCN2c3ccccc3Cc3ccccc3C2C1 (stereo not shown) [mianserine hydrochloride],"inhibition of TNF, dose dependence","[1]; 10 μg/ml, 20 μg/ml and 30 μg/ml",dose dependently inhibited
same,inhibition of spontaneous TNF production,"[1]; 30 μg/ml, 24 hours",able to inhibit
same,decrease in the levels of TNF,"[1]; 30 μg/ml, 24 hours, n=16, p=0.0007",59%±13
same,clinical score,[2]; [11],did not produce as great an effect as the 10 mg/kg group
same,hind paw swelling,[2]; [11],no significant improvement
same,histology scoring,[2]; [11],an improvement in the score
same,hind paw swelling,[2]; [12],significant improvement throughout the study
same,histology scoring,[2]; [12],significant effect
same,histology of hind paws: bone destruction and cell infiltration,[2]; interperitoneal once a day for 7 days,clear reduction in both bone destruction and cell infiltration into the joint
same,clinical score,"[2]; interperitoneal once a day for 7 days from onset, statistics for 10 mg/kg group versus vehicle, n=7",significant improvement to the control group from day 3 onwards
same,inhibition of LPS induced TNF production,[3],not and None of the drugs tested were able to inhibit
same,decreased production of TNF in response to Malp-2,[4]; Malp-2 for 6 hours,not
same,decreased production of TNF in response to flagellin,[4]; flagellin for 6 hours,not
same,inhibition of Poly IC induced IP-10 production,[5],inhibits TLR3 induced signalling; also recorded: able to inhibit
same,inhibition of CpG induced TNF production,[6],able to inhibit TNF production
same,inhibition of TLR3 induced NF-κB activation,[7],significantly inhibit
same,effect on LPS induced NF-κB activation,[8],no effect
same,inhibition of spontaneous TNF production,[9]; 20 μg/ml,able to inhibit
same,decrease of TNF levels (positive control),[9],able to decrease the TNF levels
same,inhibitory effect on TNF production at rising R-848,"[10]; 5 μg/ml with 0.3, 1, 10 or 20 μg/ml R-848, 6 hours",diminished with increasing concentrations of R-848
same,inhibition of R-848 induced TNF production,"[10]; 30 μg/ml, 30 minutes preincubation, 1 μg/ml R-848 for 6 hours, hydrochloride",decreased production of TNF; also recorded: able to suppress
same,mode of inhibition of R-848 induced TNF production,"[10]; 2.5, 5 or 10 μg/ml with 0.3, 1, 10 or 20 μg/ml R-848, 6 hours, three donors",competitively inhibits

# — patent publication US20100273750A1, “SEROTONIN RECEPTOR ANTAGONISTS FOR TREATING ARTHRITIS” (IMPERIAL INNOVATIONS LIMITED, priority 2007, published 2010)
